The experiment addresses T1, human PPARα (Homo sapiens, UniProt Q07869).
T1 construct: expressed in transfected cells; host or cells: HEK cells (human embryo kidney), stably transfected with pcDNA3-GR-GAL4-humanPPARα and the luciferase reporter pdeltaMG4LZ
T1 sequence (Q07869 167-468): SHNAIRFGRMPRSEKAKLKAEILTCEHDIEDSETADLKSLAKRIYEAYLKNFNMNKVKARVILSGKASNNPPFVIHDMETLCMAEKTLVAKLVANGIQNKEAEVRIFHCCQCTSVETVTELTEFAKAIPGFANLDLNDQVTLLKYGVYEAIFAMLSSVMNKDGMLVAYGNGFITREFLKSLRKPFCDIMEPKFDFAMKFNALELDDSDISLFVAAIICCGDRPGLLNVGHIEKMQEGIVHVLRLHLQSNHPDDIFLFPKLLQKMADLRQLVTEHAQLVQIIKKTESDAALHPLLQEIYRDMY
Description: PPARα reporter cell line assay (stably transfected HEK cells, GR-GAL4-PPARα fusion protein, firefly luciferase reporter). In kind it is cell-based. The conditions noted are these: agonist activity in HEK PPARα reporter cell line; 24 h incubation; luciferase luminescence. An excerpt: To analyze the effectiveness of substances which bind to human PPARα, activating it in agonistic manner, a stable transfected HEK cell line (HEK=human embryo kidney) designated here as “PPARα reporter cell line” is used. It contains two genetic elements, a firefly luciferase reporter element and a PPARα fusion protein (GR-GAL4-PPARα) which controls the expression of the firefly luciferase reporter element in a PPARα ligand dependent way.
The PPARα reporter cell line was established in two steps: First, the firefly luciferase reporter element was constructed and stably transfected into HEK cells. Five DNA binding sites for the yeast transcription factor GAL4 (five repetitions of the sequence 5′-CGGAGTACTGTCCTCCGAG-3′) (SEQ ID NO:1) were cloned 5′ upstream of a 68 bp minimal RNA polymerase II promoter from the GR mouse mammary tumor virus long terminal repeat (accession # V01175) providing a CCAAT-box as well as a TATA-element. Cloning and sequencing was done as described by Sambrook J. et. al. (Molecular cloning, Cold Spring Harbor Laboratory Press, 1989). The complete Photinus pyralis luciferase gene (accession # M 15077) was cloned 3′ downstream of the GAL4 binding sites and the MMTV minimal promoter. The firefly luciferase reporter element consisting of 5 GAL4 binding sites, the MMTV minimal promoter and the full length luciferase gene was recloned into a plasmid backbone harboring a Zeozin resistence gene leading to plasmid “pdeltaMG4LZ”. This vector was transfected in HEK cells as described by Ausubel, F. M. et al. (Current protocols in molecular biology, Vol. 1-3, John Wiley & Sons, Inc., 1995). Stable clones have been selected using Zeozin as a selection agent (0.5 mg/ml).
In a second step, the PPARα fusion protein (GR-GAL4-PPARα) that controls expression of the firefly luciferase reporter element, was stably integrated in this cell background. For this purpose the cDNAs coding for the N-terminal 76 amino acids of the human glucocorticoid receptor (“GR”, accession # P04150) have been linked to amino acids 1-147 of the yeast GAL4-protein (accession # P04386) followed by the ligand binding domain of humanPPARα (amino acids S167-Y468, accession # S74349). The GR-GAL4-human PPARα construct was cloned into plasmid pcDNA3 (Invitrogen) were its expression is driven constitutively by the Cytomegalovirus promoter. The plasmid pcDNA3-GR-GAL4-humanPPARα was transfected in a stable HEK-cell clone that already contained the firefly luciferase reporter element described above. A double-transfected cell line containing both, the firefly luciferase reporter element as well as the GR-GAL4-humanPPARα fusion protein, has been selected on medium supplemented with Zeozin (0.5 mg/ml) and G418 (0.5 mg/ml).
The activity of PPARα agonists is determined in a three day test, described below:
The PPARα reporter cell line is cultivated up to 80% confluence in DMEM medium (# 41965-039, Life Technologies) with the following additives: 10% cs-FCS (fetal calf serum, #SH-30068.03, Hyclone), antibiotics (0.5 mg/ml of zeozin [#R250-01, Invitrogen], 0.5 mg/ml of G418 [#10131-019, Life Technologies], 1% penicillin streptomycin solution [#15140-031, Life Technologies]) and 2 mM of L-glutamine (#25030-032, Life Technologies). Cultivation is carried out in standard cell culture bottles (# 33111, Becton Dickinson) in a cell culture incubator at 37° C. and 5% CO2. The 80% confluent cells are washed once with 30 ml of PBS (#14190-094, Life Technologies), treated with 2 ml of trypsin solution (#25300-054, Life Technologies) at 37° C. for 2 min, taken up in 5 ml of the medium described above and counted in a cell counter. After dilution to 500,000 cells/ml, in each case 35,000 cells are sown into each well of a 96-well microtiter plate having a clear plastic bottom (#3610, Coming Costar). The plates are incubated in a cell incubator at 37° C. and 5% CO2 for 24 h.
The PPARα agonists to be tested are dissolved in DMSO at a concentration of 10 mM. […]
For the compound `Cc1ccc(-c2nc(CO[C@H]3CCC[C@@H](OCc4cccc(C)c4C(=O)O)C3)c(C)o2)c(C)c1` [LV, 2-{1R,3S-3-[2-(2,4-Dimethylphenyl)-5-methyloxazol-4-ylmethoxy]cyclohexyloxymethyl}-6-methylbenzoic acid], a half-maximal effect (EC50) was put at 0.09 nM. The compound `Cc1cccc(COC[C@@H]2CCC[C@H](OCc3coc(-c4ccc(F)cc4)n3)C2)c1C(=O)O` (racemic) [XXV, rac-cis-2-{3-[2-(4-Fluorophenyl)oxazol-4-ylmethoxy]cyclohexylmethoxymethyl}-6-methylbenzoic acid] yielded a half-maximal effective concentration (EC50) of 1.3 nM. The compound `COc1ccc(-c2nc(CO[C@H]3CCC[C@@H](OCc4cccc(C)c4C(=O)O)C3)co2)cc1` (relative stereo) [IV, cis-2-(3-(2-(4-Methoxyphenyl)oxazol-4-ylmethoxy)cyclohexyloxymethyl)-6-methylbenzoic acid] returned an EC50 of 0.3 nM. The value for `Cc1cccc(CO[C@H]2CCC[C@@H](OCc3nc(-c4ccccc4)oc3C)C2)c1C(=O)O` [Example LXI, 2-Methyl-6-[1S,3R-3-(5-methyl-2-phenyloxazol-4-ylmethoxy)cyclohexyloxymethyl]benzoic acid] was 10 nM; that for `Cc1cccc(CO[C@@H]2CCC[C@H](OCc3nc(-c4cccc(F)c4)oc3C)C2)c1C(=O)O` [XLVIII, 2-{1R,3S-3-[2-(3-Fluoro-phenyl)-5-methyl-oxazol-4-ylmethoxyl]-cyclohexyloxymethyl}-6-methylbenzoic acid] was 0.25 nM. Turning to `Cc1ccccc1-c1nc(CO[C@H]2CCC[C@@H](OCc3cccc(C)c3C(=O)O)C2)c(C)o1` [LVI, 2-{1R,3S-3-[2-(2-Methylphenyl)-5-methyloxazol-4-ylmethoxy]cyclohexyloxymethyl}-6-methylbenzoic acid], the EC50 turned out to be 0.54 nM. In the case of `Cc1cccc(CO[C@@H]2CCC[C@H](OCc3nc(-c4ccccc4)oc3C)C2)c1C(=O)O` [Example LX, 2-Methyl-6-[1R,3S-3-(5-methyl-2-phenyloxazol-4-ylmethoxy)cyclohexyloxymethyl]benzoic acid], the response was half-maximal at 0.2 nM (EC50).

On to `Cc1cccc(CO[C@H]2CCC[C@@H](OCc3nc(-c4ccc(F)cc4)oc3C)C2)c1C(=O)O` (stereo in doubt) [Example X, cis-2-{3-[2-(4-Fluorophenyl)-5-methyloxazol-4-ylmethoxy]cyclohexyloxymethyl}-6-methylbenzoic acid], for which the response was half-maximal at 0.5 nM (EC50).

As to `Cc1cccc(CO[C@@H]2CCC[C@H](OCc3nc(-c4cccc(C(F)(F)F)c4)oc3C)C2)c1C(=O)O` [Example L, 2-{1R,3S-3-[2-(3-Trifluoromethylphenyl)-5-methyloxazol-4-ylmethoxy]cyclohexyloxymethyl}-6-methylbenzoic acid], a half-maximal response (EC50) required 0.19 nM. Compound `Cc1cccc(CO[C@@H]2CCC[C@H](COCc3coc(-c4ccc(F)cc4)n3)C2)c1C(=O)O` (racemic) [Example XXIV, rac-cis-2-{3-[2-(4-Fluorophenyl)oxazol-4-ylmethoxymethyl]cyclohexyloxymethyl}-6-methylbenzoic acid] returned an EC50 of 0.9 nM. Compound `Cc1cccc(CO[C@@H]2CCC[C@H](OCc3nc(-c4ccc(F)cc4)oc3C)C2)c1C(=O)O` (stereo in doubt) [IX, cis-2-(3-[2-(4-Fluorophenyl)-5-methyloxazol-4-ylmethoxy]cyclohexyloxymethyl}-6-methylbenzoic acid] had an EC50 of 0.04 nM. `Cc1cccc(CO[C@@H]2CCC[C@H](OCc3coc(-c4ccc(F)cc4)n3)C2)c1C(=O)O` (relative stereo) [Example II, (+)-cis-2-(3-(2-(4-Fluorophenyl)oxazol-4-ylmethoxy)cyclohexyloxymethyl)-6-methylbenzoic acid] displayed a concentration for a half-maximal effect (EC50) of 0.3 nM. For `COc1ccc(-c2nc(CO[C@H]3CCC[C@@H](OCc4cccc(C)c4C(=O)O)C3)c(C)o2)cc1OC` [LVIII, 2-{1R,3S-3-[2-(3,4-Dimethoxyphenyl)-5-methyloxazol-4-ylmethoxy]cyclohexyloxymethyl}-6-methylbenzoic acid] the value was 0.46 nM; for `COc1ccc(-c2nc(CO[C@@H]3CCC[C@H](OCc4cccc(C)c4C(=O)O)C3)c(C)o2)cc1` [LXV, 2-{1S,3R-3-[2-(4-Methoxyphenyl)-5-methyloxazol-4-ylmethoxy]cyclohexyloxymethyl}-6-methylbenzoic acid], 1.1 nM. In turn, `Cc1cccc(CO[C@@H]2CCC[C@H](OCc3nc(-c4ccc(Cl)cc4)oc3C)C2)c1C(=O)O` [LII, 2-{1R,3S-3-[2-(4-Chlorophenyl)-5-methyloxazol-4-ylmethoxy]cyclohexyloxymethyl}-6-methylbenzoic acid] yielded a 50% effective concentration (EC50) of 0.1 nM.

In turn, `Cc1ccc(-c2nc(CO[C@H]3CCC[C@@H](OCc4cccc(C)c4C(=O)O)C3)co2)cc1` (stereo in doubt) [VIII, cis-2-Methyl-6-[3-(2-p-tolyloxazol-4-ylmethoxy)cyclohexyloxymethyl]benzoic acid] came in with an EC50 of 0.04 nM. For `COc1ccc(-c2nc(CO[C@H]3CCC[C@@H](OCc4cccc(C)c4C(=O)O)C3)c(C)o2)cc1` [LXIV, 2-{1R,3S-3-[2-(4-Methoxyphenyl)-5-methyloxazol-4-ylmethoxy]cyclohexyloxymethyl}-6-methylbenzoic acid] the value was 0.13 nM.

For `Cc1ccc(-c2nc(CO[C@@H]3CCC[C@H](OCc4cccc(C)c4C(=O)O)C3)co2)cc1` (stereo in doubt) [VII, cis-2-Methyl-6-[3-(2-p-tolyloxazol-4-ylmethoxy)cyclohexyloxymethyl]benzoic acid], the EC50 is 4 nM. `Cc1ccc(-c2nc(CO[C@H]3CCC[C@@H](OCc4cccc(C)c4C(=O)O)C3)c(C)o2)cc1` [LXII, 2-Methyl-6-[1R,3S-3-(5-methyl-2-p-tolyloxazol-4-ylmethoxy)cyclohexyloxymethyl]benzoic acid] yielded an EC50 of 0.08 nM. In turn, `Cc1cccc(CC[C@H]2CCC[C@H](OCc3coc(-c4ccc(F)cc4)n3)C2)c1C(=O)O` (racemic) [XXIX, rac-trans-2-(2-{3-[2-(4-Fluorophenyl)oxazol-4-ylmethoxy]cyclohexyl}ethyl)-6-methylbenzoic acid] showed an EC50 of 1.4 nM. For the compound `Cc1cccc(CO[C@@H]2CCC[C@H](OCc3nc(-c4cccc(C#N)c4)oc3C)C2)c1C(=O)O` [LIX, 2-{1R,3S-3-[2-(3-Cyanophenyl)-5-methyloxazol-4-ylmethoxy]cyclohexyloxymethyl}-6-methylbenzoic acid], the EC50 was found to be 0.62 nM. Take `Cc1cccc(CO[C@@H]2CCC[C@H](OCc3nc(-c4ccc(C(C)C)cc4)oc3C)C2)c1C(=O)O` [Example LXIX, 2-Methyl-6-[(1R,3S)-3-(5-methyl-2-(4-(2-propyl)-phenyl)-oxazol-4-ylmethoxy)-cyclohexyloxymethyl]-benzoic acid]: the midpoint of the response, the EC50, lay at 0.11 nM.
